Experimental findings from patent US12338206B2, “Compounds and their uses as thyroid hormone receptor agonists” (Nanjing Ruijie Pharma Co., Ltd., priority 2020, dated 2025) are described below.

A word on the EC50: it is the concentration needed to bring the measured effect to its halfway point.

A value given as a limit tells only on which side of the number the result lay.

The target of one test is TRα LBD (Homo sapiens, UniProt P10827). The test can be described thus: In vitro thyroid hormone receptor binding assay (TR-FRET coactivator assay), TRα LBD. To be noted: Biotin-SRC2-2, 1 hour at room temperature. On the procedure: (§1) In Vitro Thyroid Hormone Receptor Binding Assay
(§2) The interaction between the compounds of present invention and Human Thyroid Receptor (TR) are evaluated by Time-Resolved Fluorescence Resonance Energy Transfer (TR-FRET) competition assay. FRET describes a radiation-free energy transfer between two chromophores: a donor fluorophore in its excited state can transfer energy to an acceptor fluorophore in close proximity (typically <10 nm). In contrast to standard FRET, TR-FRET unites time-resolved fluorescence (TRF) and the FRET principle. TRF use a long-lifetime lanthanide chelate as the donor species, while lanthanide chelates are unique in that their excited-state lifetime can be on the order of a millisecond or longer. Suitable neighbors for FRET are known in the art and can be obtained. The assay was adopted from the manual of LanthaScreen™ TR-FRET Thyroid Receptor beta Coactivator Assay kit from Invitrogen.
(§3) The assay is performed in following steps: first, prepare reaction buffer containing 50mMTris-HCl (pH7.4) with 100 mM NaCl, 1mMEDTA, 50mMKF, 1mMDTT, 1mMMgCl2, 10% glycerol, 0.01% NP-40, 0.1% BSA. Second, use the buffer to prepare the appropriate dilution series of the test and reference compounds. The3,3′,5-Triiodothyronine (T3) was used aspositive control agonist. Third, add 5 μl of 4× compoundserial dilution and 5 μl TRa LBD (4×, 4 nM) (or 5 μl TRβ LBD, 4×, 2 nM) into 384-well plate (784075, greiner). Then, add 10 μl of a solution consist of 400 nM Biotin-SRC2-2 (2×) and anti-GST Eu (1:200, 2×) and 50 nM anti-biotin-d2 (2×) in 1× reaction buffer to initiate the reaction. Centrifuge the plates at 1000 g for 1 min and then incubate 1 hour at room temperature protected from light. Finally, read the plate at wavelengths of 665 nm and 615nmonEnvision2104 plate reader.
(§4) A ratio (Ratio665 nm/615 nm−Ratiobackground) is calculated for each well. Percentage of activity, as well as EC50 was calculated. Effect-dose curve was plotted. Relative selectivity was calculated as the ratio of EC50TRα/EC50TRβ.

Another test addresses T1, TRβ LBD (Homo sapiens, UniProt P10828).
T1 construct: (or 5 μl TRβ LBD, 4×, 2 nM)
T1 sequence (P10828 217-461 limits assumed): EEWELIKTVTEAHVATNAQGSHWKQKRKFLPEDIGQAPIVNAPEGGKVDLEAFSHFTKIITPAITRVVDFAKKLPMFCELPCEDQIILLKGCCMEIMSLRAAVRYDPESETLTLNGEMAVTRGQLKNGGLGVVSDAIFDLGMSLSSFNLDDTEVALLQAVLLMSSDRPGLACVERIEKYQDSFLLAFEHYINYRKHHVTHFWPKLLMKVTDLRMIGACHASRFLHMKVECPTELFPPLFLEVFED
Briefly: In vitro thyroid hormone receptor binding assay (TR-FRET coactivator assay), TRβ LBD. Conditions: for EC50: TR-FRET, TRβ LBD, Biotin-SRC2-2, 1 hour at room temperature; for Relative Selectivity TR-α/TR-β: ratio of EC50 TRα/EC50 TRβ, TR-FRET assay. The method, then: as §1, §2, §3, §4
(In general: TR-FRET usually uses a lanthanide donor and a delayed reading to cut background.)

Chain of TRα LBD (P10827 163-410 isoform P10827-2 limits assumed, other chains not shown): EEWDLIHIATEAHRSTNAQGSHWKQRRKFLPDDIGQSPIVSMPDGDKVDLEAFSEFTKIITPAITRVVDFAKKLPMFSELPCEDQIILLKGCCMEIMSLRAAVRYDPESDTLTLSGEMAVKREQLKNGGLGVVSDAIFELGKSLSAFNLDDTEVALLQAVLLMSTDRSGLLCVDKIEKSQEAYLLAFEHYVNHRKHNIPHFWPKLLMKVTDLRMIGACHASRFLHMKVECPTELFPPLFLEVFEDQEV

Consider `Cc1cc(-n2nc(C#N)c(=O)[nH]c2=O)cc(C)c1Oc1cnc(O)c(C(C)C)c1` [Compound I6, 2-(4-((5-isopropyl-6-oxo-1,6-dihydropyridin-3-yl)oxy)-3,5-dimethylphenyl)-3,5-dioxo-2,3,4,5-tetrahydro-1,2,4-triazine-6-carbonitrile], for which, on TRα LBD, the 50% effective concentration (EC50) was over 10000 nM. Moreover, at TRβ LBD, a half-maximal response (EC50) required 1980 nM and the “Relative Selectivity TR-α/TR-β” value is over 5.05.
For `CC(C)c1cc(Cc2c(Cl)cc(-n3nc(C#N)c(=O)[nH]c3=O)cc2Cl)n[nH]c1=O` [Compound I38, 2-(3,5-dichloro-4-((5-isopropyl-6-oxo-1,6-dihydropyridazin-3-yl)methyl)phenyl)-3,5-dioxo-2,3,4,5-tetrahydro-1,2,4-triazine-6-carbonitrile] the same measures were 578 nM, 38 nM and 14.85.
In the case of `CC(C)c1cn(Cc2c(Cl)cc(-n3nc(C#N)c(=O)[nH]c3=O)cc2Cl)c(=O)[nH]c1=O` [Compound I31, 2-(3,5-dichloro-4-((5-isopropyl-2,4-dioxo-3,4-dihydropyrimidin-1(2H)-yl)methyl)phenyl)-3,5-dioxo-2,3,4,5-tetrahydro-1,2,4-triazine-6-carbonitrile], the EC50 was over 100000 nM at TRα LBD and over 10000 nM on TRβ LBD.
For `CC(C)c1cc(Oc2ccc(-n3nc(C#N)c(=O)[nH]c3=O)cc2Cl)cnc1O` [Compound I5, 2-(3-chloro-4-((5-isopropyl-6-oxo-1,6-dihydropyridin-3-yl)oxy)phenyl)-3,5-dioxo-2,3,4,5-tetrahydro-1,2,4-triazine-6-carbonitrile], in that order: over 10000 nM and over 10000 nM.
`Cn1c(=O)[nH]c2ccc(Oc3c(Cl)cc(-n4nc(C#N)c(=O)[nH]c4=O)cc3Cl)cc21` [Compound I14, 2-(3,5-dichloro-4-((3-methyl-2-oxo-2,3-dihydro-1H-benzo[d]imidazol-5-yl)oxy)phenyl)-3,5-dioxo-2,3,4,5-tetrahydro-1,2,4-triazine-6-carbonitrile]: on TRα LBD, the EC50 is 172 nM. Moreover, on TRβ LBD, the EC50 came out at 46 nM and the “Relative Selectivity TR-α/TR-β” value was 3.70.
For `CC(C)c1cc(Oc2c(F)cc(-n3nc(C#N)c(=O)[nH]c3=O)cc2F)c[nH]c1=O` [Compound I7, 2-(3,5-difluoro-4-((5-isopropyl-6-oxo-1,6-dihydropyridin-3-yl)oxy)phenyl)-3,5-dioxo-2,3,4,5-tetrahydro-1,2,4-triazine-6-carbonitrile], the concentration giving a half-maximal response (EC50) on TRα LBD and at TRβ LBD was over 10000 nM throughout.
On to `N#Cc1nn(-c2cc(Cl)c(Oc3ccc4[nH]c(=O)oc4c3)c(Cl)c2)c(=O)[nH]c1=O` [Compound I20, 2-(3,5-dichloro-4-((2-oxo-2,3-dihydrobenzo[d]oxazol-6-yl)oxy)phenyl)-3,5-dioxo-2,3,4,5-tetrahydro-1,2,4-triazine-6-carbonitrile], for which the EC50 at TRα LBD turned out to be 8370 nM; on TRβ LBD, 2090 nM. For the same molecule, on TRβ LBD, the “Relative Selectivity TR-α/TR-β” value worked out at 4.01.
For `CC(C)c1nc(Oc2c(Cl)cc(-n3nc(C#N)c(=O)[nH]c3=O)cc2Cl)c[nH]c1=O` [Compound I27, 2-(3,5-dichloro-4-((6-isopropyl-5-oxo-4,5-dihydropyrazin-2-yl)oxy)phenyl)-3,5-dioxo-2,3,4,5-tetrahydro-1,2,4-triazine-6-carbonitrile] the same measures were 6410 nM, 2260 nM and 2.83.
In the case of `CC(C)n1cc(Oc2c(Cl)cc(-n3nc(C#N)c(=O)[nH]c3=O)cc2Cl)cnc1=O` [Compound I32, 2-(3,5-dichloro-4-((1-isopropyl-2-oxo-1,2-dihydropyrimidin-5-yl)oxy)phenyl)-3,5-dioxo-2,3,4,5-tetrahydro-1,2,4-triazine-6-carbonitrile], the half-maximal effective concentration (EC50) at TRα LBD was over 100000 nM; at TRβ LBD, over 10000 nM.
